According to patent US11351185B2, “Use of isovalerylspiramycins as anti-cancer agents to inhibit metastasis” (priority 2020, dated 2022):
Entries after “also recorded” stand apart in the source; their conditions may differ.

Columns and labels:
NRF2, HMOX1, NQO1 = assay: Real time RT-PCR of NRF2 and downstream genes; type: cell-based; settings: for NRF2 expression (RT-PCR): 24 hours
Description: NRF2 (NFE2L2) is a transcription factor that regulates redox homeostasis by binding to the regulatory regions of antioxidant response elements (ARE). […] Glioblastoma (LN229 and U251) cells and RCC (786-O and RCC4) cells were treated with ISP I and evaluated for NRF2 expression levels. […] Considering this finding, the inventors evaluated SELH's regulatory role on NRF2 by measuring NRF2 expression in cells that either overexpressed or had silenced SELH expression.
Total RNA was extracted using PureLink RNA Mini Kit, a product of ThermoFisher Scientific (Waltham, Mass. USA), according manufacturer's protocol. First strand cDNA was synthesized with iScript cDNA Synthesis Kit, a product of Bio-Rad (Hercules, Calif. USA). Then the inventors performed real time PCR by SsoAdvanced Universal SYBR Green Supermix kit, a product of Bio-Rad, to quantify the expression levels of genes NRF2, HMOX1, and NQO1. The primer sequences are described in Liu et al., J. Nat'l Cancer Inst. 111: 1033 (2019). Data were analyzed and normalized to 18s rRNA as the reference gene for further statistics.

[1] = system: pre-rRNA (POL1 transcript); assay: pre-rRNA transcription, real-time RT-PCR; type: cell-based; settings: LN229 cells
Description: (§1) SELH is localized in the nucleolus, which is a sensor of oxidative stress. Yang et al., Nature communications 7: 13599 (2016); Novoselov et al., J. Biol. Chem. 282: 11960 (2007). […] JNK2 activation by oxidative stress inactivated RNA polymerase I (POL1) transcription factor TIF1A in the nucleoli to down-regulate rRNA synthesis. Mayer et al., Genes Dev. 19: 933 (2005). To investigate whether the ribosomal biogenesis was disrupted by ISP I, pre-rRNA transcription was evaluated using real-time RT-PCR analysis in LN229 cells. […] To examine the mechanisms by which ISP I disrupts POL1 transcription, the inventors initially evaluated JNK2 activity and the overall state of the transcription machinery in ISP I-treated LN229 cells.

[2] = system: meningioma cell lines IOMM, JEN, CH-157; assay: CCK8 cell viability assay, meningioma cell lines; type: cell-based; settings: 48 hours
Description: Cell viability was measured by Cell Counting Kit-8 (CCK-8, Dojindo Molecular Technologies, Tokyo, Japan). Cells were seeded in 96-well plates at a density of 3×10^3 cells/well and cultured for 24 hours before treatment with ISP I at different concentration. After treatment for a gradient ISP I concentration from 0 to 20 μg/ml for 48 hours, while control groups were only treated in PBS solution, 10 μl of CCK-8 solution were added to each well and cells were incubated for an additional 2 hours. The absorbance in each well at a wavelength of OD450 was detected by the Synergy H1 microplate reader, a product of BioTek (Winooski, Vt. USA).

U2OS cell line = assay: R-loop and EdU staining in U2OS cells; type: cell-based, Human; settings: 6 hours
Source text: In order to assess ISP I's effect within the nuclear compartment, the inventors evaluated DNA-RNA R-loop formation within ISP I-treated Human Bone Osteosarcoma Epithelial Cells (U2OS cell line). R-loops are DNA-RNA hybrid structures composed of a displaced single-stranded DNA hybridized with the nascent RNA transcript. Santo-Pereira et al., Nat. Rev. Genet. 16: 583 (2015). […] Teng et al., Nature communications 9: 4115 (2018).
U2OS cells obtained from ATCC were transfected with plasmid containing RNaseH1 construct mutated at D210N (Addgene #111904) and WKKD (Addgene #111905). Stable monoclonal cells were selected with hygromycin.
EdU and R-loop staining for U2OS cells was conducted as follows: U2OS cells were incubated with EdU for 20 min and washed with a brief PBS wash. These cells were then pre-extracted in PBS-T buffer (0.2% Triton X-100 in 1×PBS, phenylmethylsulphonylfluoride [PMSF], protease inhibitor cocktail (Sigma, P8340) and phosphatase inhibitor cocktail (Roche, P4906845001)) for 3 min on ice and washed with a brief PBS wash. Pre-extracted cells were fixed using 2.0% paraformaldehyde (PFA) solution in PBS. EdU staining was performed according to the manufacturer's instructions. Primary antibody staining was performed as follows: anti-V5-tag (Santacruz, sc-271926, 1:250 dilution). Secondary antibody staining was performed as follows: Alexa 568 conjugated anti-mouse IgG (1:500, ThermoFisher Scientific). A Zeiss LSM710 confocal microscopy was used for imaging. Images where scored in ZenBlue software by counting non-nucleolar R-loops foci, where nucleoli were masked based on intensity and size of R-loop staining and number of foci counted in the rest of the nucleus.

786-O tumors = assay: 786-O subcutaneous xenograft mouse model; type: in vivo, NSG mice; settings: 35 mg/kg i.p. daily; 18 days after treatment
Description: For subcutaneous xenografts, NSG mice (6-8 weeks old) from the NCI-Frederick animal facility and Jackson Lab (Bar Harbor, Me. USA) were injected with 5×10^6 to 1×10^7 cells subcutaneously in the flank. One week later, the tumor-bearing mice were randomly assigned to different groups and made the tumor volume baseline equivalent and treated with normal saline or Zenomycin (35 mg/kg) everyday intraperitoneally. Tumors were measured using a caliper, and volume was calculated.

[3] = system: murine B16 cells (lung metastasis); assay: B16 melanoma lung metastasis mouse model; type: in vivo, C57BL/6 mice; settings: 35 mg/kg i.p. every day, 12 days; vs saline
Description: In addition to the aforementioned xenograft tumor models, the anti-tumor activity of ISP I was assessed in a metastatic murine melanoma (B16) model.
For metastasis study, C57BL/6 mice (4-5 weeks) from Charles River Laboratories (Wilmington, Mass. USA) were assigned randomly to one or another of two groups, 9 animals per group. B16-F10 mouse skin melanoma cells (2×10^5) were resuspended in 100 μl saline and injected through tail vein. After treatment with ISP I at 35 mg/kg for 12 days, all mice were euthanized, and the lungs were examined for counting black metastasis dots.

TIF1A-POL1 interaction = assay: Co-immunoprecipitation of TIF1A and POL1; type: cell-based; settings: LN229 cells; 10 μg/mL
Description: as §1
For co-immunoprecipitation analysis, LN229 wild-type cells, LN229 cells treated with 10 μg/mL of ISP I, and LN229 cells transfected with SELH siRNA for 24 hours were harvested, and total protein was prepared from cells using Dynabeads Co-Immunoprecipitation Kit (ThermoFisher) according to the manufacturer's protocol. Immunoblotting then was performed using anti-SELH antibody.

COC1C(O)CC(=O)OC(C)CC=CC=CC(OC2CCC(N(C)C)C(C)O2)C(C)CC(CC=O)C1OC1OC(C)C(OC2CC(C)(O)C(OC(=O)CC(C)C)C(C)O2)C(N(C)C)C1O (stereo not shown) [ISP I, 4″-isolvalerylspiramycin I] was tested, and the “expression of NRF2 downstream genes HMOX1 and NQO1” value (NRF2, HMOX1, NQO1; 786-O and RCC4) was “increase in expression of the NRF2 downstream genes HMOX1 and NQO1; also recorded: significant increase in the downstream targets of NRF2 signaling”, the “NRF2 expression (RT-PCR)” value (NRF2, HMOX1, NQO1; 786-O and RCC4, 10 μg/ml) was “increase in NRF2 expression; also recorded: NRF2 expression was significantly upregulated” and the “expression of NRF2 downstream genes HMOX1 and NQO1” value (NRF2, HMOX1, NQO1; LN229 and U251) was “increase of the expression of NRF2 downstream genes HMOX1 and NQO1; also recorded: significant increase in the downstream targets of NRF2 signaling”. For the same compound, the “NRF2 expression (RT-PCR)” value (NRF2, HMOX1, NQO1; LN229 and U251, 10 μg/mL) was “increase in NRF2 expression; also recorded: NRF2 expression was significantly upregulated”, the pre-rRNA transcription [1] was “decreased pre-rRNA transcription in a dose-dependent manner; also recorded: reduced Pre-rRNA (PoL1 transcript) in a dose-dependent manner” and the “cytotoxic effect on meningioma cell lines” value [2] was “demonstrated a cytotoxic effect”. For the same compound, the “EdU incorporation (DNA replication)” value (U2OS cell line) was “reduced EdU (DNA replication marker) incorporation into DNA in a dose-dependent manner”, the R-loop formation (U2OS cell line) was “increased R-loop accumulation” and the “EdU incorporation (DNA replication)” value (U2OS cell line; listed as ISP 1) was “reduction in EdU incorporation”. For the same compound, the R-loop formation (U2OS cell line; listed as ISP 1) was “increase of R-Loops formation”, the “tumor size, weight and burden” value (786-O tumors) was “reduced 786-O tumor burden; also recorded: significantly reduced tumor size and weight” and the “lung tumor nodules (melanoma spots)” value [3] was “significantly reduced lung tumor nodules”. The “TIF1A-POL1 interaction (co-immunoprecipitation)” value (TIF1A-POL1 interaction) was “interaction was disrupted by ISP I treatment”.
